# Results taken from patent US20020077317A1, “Method of potentating the action of 2-methoxyoestradiol, statins and C-peptide of proinsulin” (priority 2000, published 2002).
# Legend:
# [1] = test system: tumor cells; experiment: PUFA potentiation of anti-cancer drugs in tumor cells; type: cell-based; details: for cytotoxic action of doxorubicin, vincristine and cis-platinum: fatty acid added to anti-cancer drug
# [2] = test system: bone marrow cells; experiment: side effects of anti-cancer agents on mouse bone marrow cells; type: in vivo; details: mice
# Excerpt: […], it is desirable that PUFAs should be delivered to the patients in such a manner that they are easily available to the tumor cells and are delivered selectively to the tumor cells.
# [3] = test system: hepatoma; experiment: hepatoma in rats; type: in vivo; details: pure fatty acid or fatty acid rich oils
# [4] = test system: tumor cells and normal cells; experiment: PUFAs on tumor cells and normal cells in vitro; type: cell-based; details: for killing of tumor cells versus normal cells: in vitro
# Excerpt: (§1) Tumor cells are not only deficient in PUFAs but also have low rate(s) of lipid peroxidation and low amounts of superoxide dismutase (SOD), and contain relatively large amounts of antioxidants such as vitamin E. It is also believed that low rates of lipid peroxidation and consequent low amounts of lipid peroxides in the cells can contribute to an increase in the mitotic process which ultimately leads to an increase in cell proliferation. Thus, a deficiency of PUFAs, high amounts of antioxidants and the presence of low amounts of lipid peroxides in the tumor cells can contribute to the growth of tumor cells.
# (§2) Essential fatty acids are precursors of eicosanoids and are important structural components of cell membranes. They also provide the substrates for the generation of lipid peroxidation products which have an inhibitory action on cell proliferation. Tumor cells are known to have low delta-6-desaturase activity, an enzyme necessary for the desaturation of dietary linoleic acid (LA, 18:2, n-6) and alpha-linolenic acid (ALA, 18:3, n-3) to their respective products. […] This selective tumoricidal action of fatty acids seems to be mediated by free radicals and lipid peroxides.
# [5] = test system: skin papilloma; experiment: skin papilloma in mice; type: in vivo; details: pure fatty acid or fatty acid rich oils
# [6] = test system: TNF resistant L-929 tumor cells; experiment: TNF resistant L-929 tumor cells in vitro; type: cell-based; details: for killing of TNF resistant L-929 tumor cells: in vitro; for sensitisation of TNF-resistant L-929 cells to TNF: prior treatment with fatty acid
# [7] = test system: ascitic tumor cells; experiment: ascitic tumor cells in the peritoneum; type: in vivo; details: experimental animals; pure fatty acid or fatty acid rich oils
# [8] = test system: KB-Ch^R-8-5; experiment: vincristine resistant KB-ChR-8-5 tumor cells; type: cell-based
# [9] = test system: normal and tumor cells grown together; experiment: mixed culture of normal and tumor cells; type: cell-based
# Excerpt: as §1
# [10] = test system: Chinese Hamster V79 cells; details: in culture; cited from earlier work
# [11] = test system: SOD (superoxide dismutase); details: cited from earlier work
# [12] = test system: normal human skin fibroblasts; details: at 100 micro M concentration; cited from earlier work
# [13] = test system: solid tumors; details: cited from earlier work
# [14] = test system: breast cancer cells, MCF-7; details: cited from earlier work
# [15] = test system: endothelial cells; details: read-out: half-maximal inhibitory concentration (IC50); cited from earlier work
# [16] = test system: p53 protein; details: cited from earlier work
# [17] = target: delta-6-desaturase (Homo sapiens, UniProt O95864); experiment: delta-6-desaturase activity; type: biochemical
# Excerpt: as §2
# [18] = target: delta-5-desaturase (Homo sapiens, UniProt O60427); experiment: delta-5-desaturase activity; type: biochemical
# Excerpt: as §2
# [19] = test system: primary and metastatic tumors; details: experimental animals; cited from earlier work
# [20] = test system: endothelial cell; details: cited from earlier work
# [21] = test system: free radical generation and lipid peroxidation; details: cited from earlier work
# [22] = test system: subcutaneous hemangioendothelioma; details: mice with hemangioendothelioma and disseminated intravascular coagulopathy; cited from earlier work
# [23] = test system: proliferating endothelial cells; details: cited from earlier work
# [24] = test system: bovine capillary endothelial cells; details: in vitro; cited from earlier work
# [25] = proliferating endothelial cells
# delta-6-desaturase, sequence (O95864 whole entry, species assumed): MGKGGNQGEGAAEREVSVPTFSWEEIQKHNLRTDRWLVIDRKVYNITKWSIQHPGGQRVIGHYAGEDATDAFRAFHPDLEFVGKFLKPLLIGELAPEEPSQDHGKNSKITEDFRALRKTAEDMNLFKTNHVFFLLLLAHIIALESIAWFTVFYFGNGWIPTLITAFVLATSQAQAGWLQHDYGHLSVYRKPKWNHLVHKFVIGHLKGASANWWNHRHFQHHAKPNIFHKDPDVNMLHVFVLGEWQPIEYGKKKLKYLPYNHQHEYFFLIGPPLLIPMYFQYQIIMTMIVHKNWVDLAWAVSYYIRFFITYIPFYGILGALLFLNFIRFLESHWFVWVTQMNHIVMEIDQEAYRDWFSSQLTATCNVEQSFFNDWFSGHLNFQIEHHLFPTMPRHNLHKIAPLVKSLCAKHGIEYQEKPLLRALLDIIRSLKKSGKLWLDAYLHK
# delta-5-desaturase, sequence (O60427 whole entry, species assumed): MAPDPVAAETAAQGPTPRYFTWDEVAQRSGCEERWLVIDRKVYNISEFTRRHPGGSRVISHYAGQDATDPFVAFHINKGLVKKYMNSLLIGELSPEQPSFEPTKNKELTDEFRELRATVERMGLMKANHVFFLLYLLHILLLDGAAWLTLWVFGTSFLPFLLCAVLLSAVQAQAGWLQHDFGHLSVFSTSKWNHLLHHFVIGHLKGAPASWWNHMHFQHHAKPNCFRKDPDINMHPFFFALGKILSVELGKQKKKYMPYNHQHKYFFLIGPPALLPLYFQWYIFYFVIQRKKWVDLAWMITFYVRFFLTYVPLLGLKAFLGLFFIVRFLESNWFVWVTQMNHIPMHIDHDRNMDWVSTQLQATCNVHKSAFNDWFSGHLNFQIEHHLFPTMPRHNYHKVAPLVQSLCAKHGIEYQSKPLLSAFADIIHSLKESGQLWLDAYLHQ
compound,measurement,setting,value
"CC/C=C\C/C=C\C/C=C\C/C=C\C/C=C\CCCC(=O)O [EPA, eicosapentaenoic acid]","cytotoxic action of doxorubicin, vincristine and cis-platinum",[1],can be augmented
same,side effects of gamma-radiation and cis-platinum to bone marrow cells,[2],prevent or ameliorate the side effects
"CCCCC/C=C\C/C=C\C/C=C\CCCCCCC(=O)O [DGLA, dihomo-GLA]",formation and growth of hepatoma,[3],inhibit the growth
same,tumor cell proliferation,[4],decrease tumor cell proliferation
same,killing of tumor cells versus normal cells,[4],only tumor cells are killed
same,cellular uptake of anti-cancer drugs by tumor cells,[1],enhance the cellular uptake
same,"cytotoxic action of doxorubicin, vincristine and cis-platinum",[1],can be augmented
same,growth of skin papilloma,[5],inhibit the growth
same,killing of TNF resistant L-929 tumor cells,[6],able to kill
same,sensitisation of TNF-resistant L-929 cells to TNF,[6],rendered TNF sensitive
same,growth of ascitic tumor cells in the peritoneum,[7],inhibit the growth
same,side effects of gamma-radiation and cis-platinum to bone marrow cells,[2],prevent or ameliorate the side effects
same,sensitisation of vincristine resistant cells to vincristine,[8],made sensitive to the cytotoxic action of vincristine
"CCCCC/C=C\C/C=C\C/C=C\C/C=C\CCCC(=O)O [AA, arachidonic acid]",selective tumoricidal action in mixed culture,[9],effective to some extent
same,formation and growth of hepatoma,[3],inhibit the growth
same,tumor cell proliferation,[4],decrease tumor cell proliferation
same,killing of tumor cells versus normal cells,[4],only tumor cells are killed
same,cellular uptake of anti-cancer drugs by tumor cells,[1],enhance the cellular uptake
same,"cytotoxic action of doxorubicin, vincristine and cis-platinum",[1],can be augmented
same,growth of skin papilloma,[5],inhibit the growth
same,killing of TNF resistant L-929 tumor cells,[6],able to kill
same,sensitisation of TNF-resistant L-929 cells to TNF,[6],rendered TNF sensitive
same,growth of ascitic tumor cells in the peritoneum,[7],inhibit the growth
same,sensitisation of vincristine resistant cells to vincristine,[8],made sensitive to the cytotoxic action of vincristine
CC\C=C/C=C/C=C/C=C\CCCCCCCC(=O)O [cis-parinaric acid],killing of tumor cells versus normal cells,[4],only tumor cells are killed
"COc1cc2c(cc1O)CC[C@@H]1[C@@H]2CC[C@]2(C)[C@@H](O)CC[C@@H]12 [2-ME, 2-methoxyoestradiol]",growth of Chinese Hamster V79 cells,[10],suppres the growth
same,binding to SOD,[11],able to bind to SOD
same,effect on normal human skin fibroblasts,[12],no effect
same,general toxicity,[13]; in vivo,not associated with general toxicity
same,capillary formation in and growth of solid tumors,"[13]; oral administration, mice",inhibit capillary formation in solid tumors and reduce their growth
same,action on MCF-7 cells,[14],cytotoxic action
same,IC50,[15],150 nM
same,accumulation of p53 protein,[16],induce the accumulation of p53 protein
"CC(=O)Nc1ccc2c(c1)Cc1ccccc1-2 [2-AAF, 2-acetylaminofluorine]",activity of delta-6-desaturase,[17],can suppress the activity
same,activity of delta-5-desaturase,[18],can suppress the activity
Endostatin®,primary and metastatic tumors,[19],dramatic reduction of primary and metastatic tumors
same,endothelial cell proliferation and angiogenesis,[20],specifically inhibit endothelial cell proliferation and angiogenesis
"CCCCC/C=C\C/C=C\CCCCCCCC(=O)O [LA, linoleic acid]",killing of tumor cells versus normal cells,[4],only tumor cells are killed
vitamin E,"free radical generation and lipid peroxidation generated by GLA, EPA and DHA",[21],completely inhibit free radical generation and lipid peroxidation
angiostatin®,size of the tumor,[22],significant reduction in the size of the tumor
same,survival,[22],increased survival
same,cell cycle progression,[23],did not alter cell cycle progression significantly
same,adhesion activity,[23]; [25],enhanced the adhesion activity
same,change in expression of E-selectin,[23]; [25],4 to 5 fold
same,proliferation/growth of bovine capillary endothelial cells,[24],inhibit the growth of bovine capillary endothelial cells
"CCCCC/C=C\C/C=C\C/C=C\CCCCC(=O)O [GLA, gamma-linolenic acid]",formation and growth of hepatoma,[3],inhibit the growth
same,tumor cell proliferation,[4],decrease tumor cell proliferation
same,killing of tumor cells versus normal cells,[4],only tumor cells are killed
same,cellular uptake of anti-cancer drugs by tumor cells,[1],enhance the cellular uptake
same,"cytotoxic action of doxorubicin, vincristine and cis-platinum",[1],can be augmented
same,killing of TNF resistant L-929 tumor cells,[6],able to kill
same,growth of ascitic tumor cells in the peritoneum,[7],inhibit the growth
same,side effects of gamma-radiation and cis-platinum to bone marrow cells,[2],prevent or ameliorate the side effects
superoxide dismutase,"free radical generation and lipid peroxidation generated by GLA, EPA and DHA",[21],completely inhibit free radical generation and lipid peroxidation
"CC/C=C\C/C=C\C/C=C\CCCCCCCC(=O)O [ALA, alpha-linolenic acid]",killing of tumor cells versus normal cells,[4],only tumor cells are killed
"CCN(CC)N=O [DEN, diethylnitrosamine]",activity of delta-6-desaturase,[17],can suppress the activity
same,activity of delta-5-desaturase,[18],can suppress the activity
"CC/C=C\C/C=C\C/C=C\C/C=C\C/C=C\C/C=C\CCC(=O)O [DHA, docosahexaenoic acid]","cytotoxic action of doxorubicin, vincristine and cis-platinum",[1],can be augmented
